Test results taken from US8410302B2, “Methoxyimino compounds and fungicide composition comprising same” (Kyung Nong Corporation, priority 2007, dated 2013).
Where two headings read alike, the source gives them in different places.

How the values were obtained:
Rhizoctonia solani AG-1 = experiment: Fungicidal activity against rice sheath blight (RSB) disease, control value; details: for pest or weed control at 2 ppm / pest or weed control at 10 ppm / pest or weed control at 50 ppm / pest or weed control at 100 ppm: Rhizoctonia solani, AG1, in Oryza sativa, read-out: RSB control value (C.V.); for RSB control value (C.V.): 100 ppm, rice sheath blight
Phytophthora infestans = experiment: whole plant or invertebrate; assay type: in vivo; details: for pest or weed control at 50 ppm / pest or weed control at 100 ppm / pest or weed control at 2 ppm / pest or weed control at 10 ppm: Phytophthora infestans, in Solanum lycopersicum, read-out: TLB control value (C.V.); for TLB control value (C.V.): tomato late blight
[1] = tested on: Pyricularia oryzae Carvara KA301; experiment: whole plant or invertebrate; assay type: in vivo; details: for pest or weed control at 2 ppm / pest or weed control at 10 ppm / pest or weed control at 50 ppm / pest or weed control at 100 ppm: Pyricularia oryzae, read-out: RCB control value (C.V.); for RCB control value (C.V.): rice blast
Puccinia recondita = experiment: Fungicidal activity against wheat leaf rust (WLR) disease, control value; assay type: in vivo; details: for pest or weed control at 2 ppm / pest or weed control at 10 ppm / pest or weed control at 50 ppm / pest or weed control at 100 ppm: read-out: WLR control value (C.V.)
Botrytis cinerae = experiment: Fungicidal activity against cucumber gray mold rot (CGM) disease, control value; assay type: in vivo; details: for pest or weed control at 100 ppm / CGM control value (C.V.): 100 ppm
Erysiphae graminis = experiment: Fungicidal activity against barley powdery mildew (BPM) disease, control value; assay type: in vivo; details: for pest or weed control at 2 ppm / pest or weed control at 10 ppm / pest or weed control at 50 ppm / pest or weed control at 100 ppm: 168 h, read-out: BPM control value (C.V.)
[2] = Botrytis, cucumber gray mold rot, read-out: CGM control value (C.V.)
[3] = Hordeum vulgare, 2 ppm, barley powdery mildew
[4] = Hordeum vulgare, 10 ppm, barley powdery mildew
[5] = Hordeum vulgare, 50 ppm, barley powdery mildew
[6] = Hordeum vulgare, 100 ppm, barley powdery mildew
[7] = Botrytis, read-out: CGM control value (C.V.)

SMILES	pest or weed control at 2 ppm (Rhizoctonia solani AG-1) [%]	pest or weed control at 10 ppm (Rhizoctonia solani AG-1) [%]	pest or weed control at 50 ppm (Rhizoctonia solani AG-1) [%]	pest or weed control at 100 ppm (Rhizoctonia solani AG-1) [%]	pest or weed control at 50 ppm (Phytophthora infestans) [%]	pest or weed control at 100 ppm (Phytophthora infestans) [%]	pest or weed control at 2 ppm [1] [%]	pest or weed control at 10 ppm [1] [%]	pest or weed control at 50 ppm [1] [%]	pest or weed control at 100 ppm [1] [%]	pest or weed control at 2 ppm (Phytophthora infestans) [%]	pest or weed control at 10 ppm (Phytophthora infestans) [%]	pest or weed control at 2 ppm (Puccinia recondita; Puccinia recondita, 2 ppm) [%]	pest or weed control at 10 ppm (Puccinia recondita; Puccinia recondita, 10 ppm) [%]	pest or weed control at 50 ppm (Puccinia recondita; Puccinia recondita, 50 ppm) [%]	pest or weed control at 100 ppm (Puccinia recondita; Puccinia recondita, 100 ppm) [%]	pest or weed control at 100 ppm (Botrytis cinerae; [7]) [%]	pest or weed control at 2 ppm (Erysiphae graminis; 2 ppm) [%]	pest or weed control at 10 ppm (Erysiphae graminis; 10 ppm) [%]	pest or weed control at 50 ppm (Erysiphae graminis; 50 ppm) [%]	other results
CNC(=O)/C(=N/OC)c1ccccc1COc1ccc(C=C(Cl)Cl)cc1C [Example 42, (E)-2-(2-((4-(2,2-dichlorovinyl)-2-methylphenoxy)methyl)phenyl)-2-methoxyimino-N-methylacetamide]	100	100	100	100	70	95	100	100	100	100	–	–	–	–	–	–	–	–	–	–	pest or weed control at 2 ppm (Puccinia recondita; 2 ppm, wheat leaf rust): 100%; pest or weed control at 10 ppm (Puccinia recondita; 10 ppm, wheat leaf rust): 100%; pest or weed control at 50 ppm (Puccinia recondita; 50 ppm, wheat leaf rust): 100%; pest or weed control at 100 ppm (Puccinia recondita; 100 ppm, wheat leaf rust): 100%; pest or weed control at 100 ppm (Botrytis cinerae; [2]): 0%; pest or weed control at 2 ppm (Erysiphae graminis; [3]): 100%; pest or weed control at 10 ppm (Erysiphae graminis; [4]): 100%; pest or weed control at 50 ppm (Erysiphae graminis; [5]): 100%; pest or weed control at 100 ppm (Erysiphae graminis; [6]): 100%
CO/N=C(/C(=O)OC)c1ccccc1COc1ccc(F)cc1C=C(Br)Br [Example 79, methyl-(E)-2-(2-((2-(2,2-dibromovinyl)-4-fluorophenoxy)methyl)phenyl)-2-methoxyiminoacetate]	85	98	100	100	98	100	80	98	100	100	70	90	95	100	100	100	40	90	100	100	pest or weed control at 100 ppm (Erysiphae graminis; 100 ppm): 100%
CO/N=C(/C(=O)OC)c1ccccc1CON=C(C)c1cccc(C=C(F)F)c1 [Example 27, methyl-(E)-2-[[[[[2-[3-(2,2-difluorovinyl)phenyl](1-methyl)methylidene]amino]oxy]methyl]phenyl]-2-methoxyiminoacetate]	–	–	–	–	–	–	–	–	–	–	–	–	–	–	–	–	–	–	–	–	RSB control value (C.V.) (Rhizoctonia solani AG-1): 0%; TLB control value (C.V.) (Phytophthora infestans; 2 ppm): 98%; TLB control value (C.V.) (Phytophthora infestans; 10 ppm): 100%; TLB control value (C.V.) (Phytophthora infestans; 50 ppm): 100%; TLB control value (C.V.) (Phytophthora infestans; 100 ppm): 100%; RCB control value (C.V.) ([1]; 2 ppm): 90%; RCB control value (C.V.) ([1]; 10 ppm): 97%; RCB control value (C.V.) ([1]; 50 ppm): 100%; RCB control value (C.V.) ([1]; 100 ppm): 100%; WLR control value (C.V.) (Puccinia recondita; 2 ppm, wheat leaf rust): 100%; WLR control value (C.V.) (Puccinia recondita; 10 ppm, wheat leaf rust): 100%; WLR control value (C.V.) (Puccinia recondita; 50 ppm, wheat leaf rust): 100%; WLR control value (C.V.) (Puccinia recondita; 100 ppm, wheat leaf rust): 100%; CGM control value (C.V.) (Botrytis cinerae; cucumber gray mold rot): 55%; BPM control value (C.V.) (Erysiphae graminis; 2 ppm, barley powdery mildew): 98%; BPM control value (C.V.) (Erysiphae graminis; 10 ppm, barley powdery mildew): 100%; BPM control value (C.V.) (Erysiphae graminis; 50 ppm, barley powdery mildew): 100%; BPM control value (C.V.) (Erysiphae graminis; 100 ppm, barley powdery mildew): 100%
CO/N=C(/C(=O)OC)c1ccccc1COc1ccc(C)cc1C=C(Br)Br [Example 69, methyl-(E)-2-(2-((2-(2,2-dibromovinyl)-4-methylphenoxy)methyl)phenyl)-2-methoxyiminoacetate]	100	100	100	100	100	100	100	100	100	100	100	100	100	100	100	100	60	100	100	100	pest or weed control at 100 ppm (Erysiphae graminis; 100 ppm): 100%
CO/N=C(/C(=O)OC)c1ccccc1COc1ccc(C)cc1C=C(Cl)Cl [Example 45, methyl-(E)-2-(2-((2-(2,2-dichlorovinyl)-4-methylphenoxy)methyl)phenyl)-2-methoxyiminoacetate]	100	100	100	100	100	100	100	100	100	100	92	98	–	–	–	–	–	–	–	–	pest or weed control at 2 ppm (Puccinia recondita; 2 ppm, wheat leaf rust): 100%; pest or weed control at 10 ppm (Puccinia recondita; 10 ppm, wheat leaf rust): 100%; pest or weed control at 50 ppm (Puccinia recondita; 50 ppm, wheat leaf rust): 100%; pest or weed control at 100 ppm (Puccinia recondita; 100 ppm, wheat leaf rust): 100%; pest or weed control at 100 ppm (Botrytis cinerae; [2]): 35%; pest or weed control at 2 ppm (Erysiphae graminis; [3]): 100%; pest or weed control at 10 ppm (Erysiphae graminis; [4]): 100%; pest or weed control at 50 ppm (Erysiphae graminis; [5]): 100%; pest or weed control at 100 ppm (Erysiphae graminis; [6]): 100%
CO/N=C(/C(=O)OC)c1ccccc1COc1cc(C=C(Cl)Cl)ccc1OC [Example 47, methyl-(E)-2-(2-((5-(2,2-dichlorovinyl)-2-methoxyphenoxy)methyl)phenyl)-2-methoxyiminoacetate]	95	100	100	100	100	100	80	99	100	100	85	95	–	–	–	–	–	–	–	–	pest or weed control at 2 ppm (Puccinia recondita; 2 ppm, wheat leaf rust): 100%; pest or weed control at 10 ppm (Puccinia recondita; 10 ppm, wheat leaf rust): 100%; pest or weed control at 50 ppm (Puccinia recondita; 50 ppm, wheat leaf rust): 100%; pest or weed control at 100 ppm (Puccinia recondita; 100 ppm, wheat leaf rust): 100%; pest or weed control at 100 ppm (Botrytis cinerae; [2]): 55%; pest or weed control at 2 ppm (Erysiphae graminis; [3]): 100%; pest or weed control at 10 ppm (Erysiphae graminis; [4]): 100%; pest or weed control at 50 ppm (Erysiphae graminis; [5]): 100%; pest or weed control at 100 ppm (Erysiphae graminis; [6]): 100%
CO/N=C(/C(=O)OC)c1ccccc1CON=C(C)c1cccc(C=C(Cl)Br)c1 [Example 35, methyl-(E)-2-[[[[[2-[3-(2-bromo-2-chlorovinyl)phenyl](1-methyl)methylidene]amino]oxy]methyl]phenyl]-2-methoxyiminoacetate]	–	–	–	–	–	–	–	–	–	–	–	–	–	–	–	–	–	–	–	–	RSB control value (C.V.) (Rhizoctonia solani AG-1): 10%; TLB control value (C.V.) (Phytophthora infestans; 10 ppm): 10%; TLB control value (C.V.) (Phytophthora infestans; 50 ppm): 90%; TLB control value (C.V.) (Phytophthora infestans; 100 ppm): 100%; RCB control value (C.V.) ([1]; 2 ppm): 70%; RCB control value (C.V.) ([1]; 10 ppm): 100%; RCB control value (C.V.) ([1]; 50 ppm): 100%; RCB control value (C.V.) ([1]; 100 ppm): 100%; WLR control value (C.V.) (Puccinia recondita; 2 ppm, wheat leaf rust): 100%; WLR control value (C.V.) (Puccinia recondita; 10 ppm, wheat leaf rust): 100%; WLR control value (C.V.) (Puccinia recondita; 50 ppm, wheat leaf rust): 100%; WLR control value (C.V.) (Puccinia recondita; 100 ppm, wheat leaf rust): 100%; CGM control value (C.V.) (Botrytis cinerae; cucumber gray mold rot): 50%; BPM control value (C.V.) (Erysiphae graminis; 2 ppm, barley powdery mildew): 15%; BPM control value (C.V.) (Erysiphae graminis; 10 ppm, barley powdery mildew): 60%; BPM control value (C.V.) (Erysiphae graminis; 50 ppm, barley powdery mildew): 93%; BPM control value (C.V.) (Erysiphae graminis; 100 ppm, barley powdery mildew): 95%
CNC(=O)/C(=N/OC)c1ccccc1COc1ccc(C=C(Cl)Cl)c(Cl)c1 [Example 58, (E)-2-(2-((3-chloro-4-(2,2-dichlorovinyl)phenoxy)methyl)phenyl)-2-methoxyimino-N-methylacetamide]	90	100	100	100	100	100	100	100	100	100	99	100	100	100	100	100	35	100	100	100	pest or weed control at 100 ppm (Erysiphae graminis; 100 ppm): 100%
CNC(=O)/C(=N/OC)c1ccccc1COc1ccc(C=C(Br)Br)cc1Cl [Example 64, (E)-2-(2-((4-(2,2-dibromovinyl)-2-chlorophenoxy)methyl)phenyl)-2-methoxyimino-N-methylacetamide]	95	100	100	100	100	100	100	100	100	100	99	100	100	100	100	100	80	97	100	100	pest or weed control at 50 ppm (Botrytis cinerae; Botrytis, 50 ppm, read-out: CGM control value (C.V.)): 40%; pest or weed control at 100 ppm (Erysiphae graminis; 100 ppm): 100%
